One experiment concerns 3T3L1 cells. The experiment in a line: Adipocyte differentiation inhibition in preadipocytes (Oil-red O staining). Type of experiment: cell-based, mouse. The conditions noted are these: for adipocyte differentiation inhibition effect (in words): different concentrations. How it is done:
Preadipocytes, 3T3L1 cells, were aliquoted into a 12-well plate and cultured in a DMEM medium containing 1% penicillin-streptomycin, 1% nonessential amino acid, and 10% fetal bovine serum (FBS) in a 5% CO2 incubator at 37° C. until confluence. The 3T3L1 cells grown to confluence were cultured for two days in a medium containing 0.5 mM isobutyl-methylxanthine, 1 μM dexamethasone (MDI), and 1 μg/ml insulin, thereby being differentiated into adipocytes. Subsequently, the differentiated adipocytes were further cultured for two days in a DMEM medium including 1 μg/ml insulin, thereby being differentiated into mature adipocytes. Subsequently, the differentiated mature adipocytes were further cultured for 10 days while replacing a used DMEM medium with a new DMEM medium every two days. As a result, completely differentiated adipocytes were formed.
3T3-L1 cells were treated with each of a total of four novel compound types at different concentrations every two days from the first day of cell differentiation induction by addition of DMI. Each of the derivative compounds was dissolved in DMSO and then used. A negative control group including only DMSO was included in this experiment. Cell culture was carried out for 14 days. When differentiation was completed, a medium was removed and lipid droplets contained in differentiated adipocytes were stained. To stain the lipid droplets, cells were washed with phosphate buffered saline (PBS) twice and then fixed with 10% buffered neutral formalin for one hour, followed by washing with PBS once. Subsequently, 1 ml of Oil-red-O dye for staining lipid droplets red was fed into a 12-well plate and lipid droplets were stained for one hour, followed by washing with distilled water twice. To measure the concentration of neutral fat contained in the differentiated 3T3L1 cells, the stained lipid droplets were dissolved in 1 ml of isobutanol, followed by measuring an O.D value at 600 nm.

In another experiment the test system is C57BL/6J mice. The experiment in a line: Body weight and visceral fat weight in mice fed high-fat diet. The conditions noted are these: high-fat diet with about 0.05% compound (sibutramine about 0.01%), 10 weeks. Type of experiment: in vivo, mouse. The procedure: An obesity induction diet used in this experiment was a high-fat diet (HFD: 40% fat calories, 17 g of lard+3% corn oil/100 g diet), and the compositions of diets including the LJ-2501, LJ-2488, LJ-2495, LJ-2496 compounds were identical to that of HFD, except that each of the compounds was included in an amount of about 0.05% (Table 2). As a control drug, an anti-obesity drug, sibutramine (Sibut), was added in an amount of about 0.01% to the high-fat diet and a normal diet group (Chow) was fed with commercial rodent chow.
5-week old 40 male C57BL/6J mice (Orient Bio., Korea) were fed with hard feed and accommodated in a laboratory environment for one week. Subsequently, in accordance with a randomized block method, the mice were randomly grouped into a normal diet group, a high-fat diet control group, two experimental substance groups, and […] and raised for a total of 10 weeks (n=8/group). Diets were supplied with water between 10 am and 11 am every day. An intake amount was measured every day and the body weights of the mice were measured every week. To prevent temporal weight change due to feed intake, feedboxes were removed and, after two hours, the body weights were measured. The experimental animals were fasted for 12 hours or more and then anesthetized with diethyl ether, followed by collecting blood, liver, and visceral adipose tissues (epididymal fat, perirenal fat, mesenteric fat, and retroperitoneal fat). The collected samples were washed with 0.1 M phosphate buffered saline (pH 7.4) and then weighed. Blood samples collected from abdominal aortas were centrifuged at 1000×g for 15 minutes, thereby separating plasma.

We go through 4 molecules from patent US10100011B2, “Pentadienoyl piperidine derivative and use thereof” (Industry-Academic Cooperation Foundation, Yonsei University, priority 2014, dated 2018).

As to `CCCOc1ccc(/C=C/C=C/C(=O)N2CCCCC2)cc1` [LJ-2496, (2E,4E)-1-(piperine-1-yl)-5-(4-propoxyphenyl)penta-2,4-diene-1-one], the “adipocyte differentiation inhibition effect (in words)” value in the experiment on 3T3L1 cells is recorded as “did not exhibit an adipocyte differentiation inhibition effect”. Take `COc1ccc(OC)c(/C=C/C=C/C(=O)N2CCCCC2)c1` [LJ-2488, (2E,4E)-5-(2,5-dimethoxyphenyl)-1-(piperine-1-yl)penta-2,4-diene-1-one]: the EC50 (as a rule, the concentration at which the effect is half-maximal) in the experiment on 3T3L1 cells (Mus musculus, 3T3-L1, treated every two days during 14 days differentiation, Oil-red O O.D. 600 nm, read-out: preadipocyte differentiation inhibition effect, EC50 value) stood at 2.8 mM. Besides, in the experiment on C57BL/6J mice, the “visceral fat reduction effect, change vs HFD (given with minus sign)” value was −6% and the “weight reduction effect, change in cumulative weight gain vs HFD (given with minus sign)” value is recorded as −14%.

Regarding `CCOc1ccc(/C=C/C=C/C(=O)N2CCCCC2)cc1` [LJ-2495, (2E,4E)-5-(4-ethoxyphenyl)-1-(piperine-1-yl)penta-2,4-diene-1-one], the “adipocyte differentiation inhibition effect (in words)” value with 3T3L1 cells was “did not exhibit an adipocyte differentiation inhibition effect”. Consider `CC(C)CC(N(C)C)C1(c2ccc(Cl)cc2)CCC1` (stereo not shown) [sibutramine, reference compound], for which, in the experiment with C57BL/6J mice, the “visceral fat reduction effect, change vs HFD (given with minus sign)” value is on record as −22% and the “weight reduction effect, change in cumulative weight gain vs HFD (given with minus sign)” value is listed as −33%.
